We go through 9 compounds from patent US8378117B2 (priority 2005, dated 2013).

In one assay the target is T1, CB1 receptor (Homo sapiens, UniProt P21554).
T1 construct: expressed in transfected cells
As to the kind of experiment: Binding assay for CB1 agonists or inverse agonists (SK-N-MC membranes, [3H]-CP-55,940). To be noted: for IC50: Cannabinoid CB1 Receptor Binding IC50, calculated by linear regression from percent inhibition at various test concentrations; for inhibition at 0.5 µM: read-out: CB1 receptor binding percent inhibition, test concentration 0.5 μM (footnote 10); for inhibition at 1 µM: read-out: CB1 receptor binding percent inhibition, test concentration 1 μM (footnote 1). The procedure: (§1) The human CB1 and CB2 receptors were stably expressed in SK-N-MC cells transfected with pcDNA3 CB-1 (human) or pcDNA3 CB-2 (human). The cells were grown in T-180 cell culture flasks under standard cell culture conditions at 37° C. in a 5% CO2 atmosphere. The cells were harvested by trysinization and homogenized in a homogenization buffer (10 mM Tris, 0.2 mM MgCl2, 5 mM KCl, with protease inhibitors aprotinin, leupeptin, pepstatin A and bacitracin) and centrifuged (2000 g). The supernatant was then centrifuged in 2M sucrose (31,300 g) to produce a semi-purified membrane pellet. The pellet was resuspended in homogenization and stored at −80° C.
(§2) On the day of the assay, the pellet was thawed on ice and diluted in assay buffer (50 mM Tris-HCl, 5 mM MgCl2, 2.5 mM EDTA, 0.5 mg/mL fatty acid free bovine serum aldumin, pH 7.5). The diluted membrane pellet was added with buffer, either a test compound or vehicle standard and the radioligand [H]^3+-CP-55,940 (0.2 mM) to the wells of a 96-well polypropylene plate. Non-specific binding was measured in wells containing WIN 55,212 (10 uM). The plate was covered and incubated for 90 minutes at 30° C. The contents were then aspirated onto a Packard Unifilter GF/C filter bottom plate prewet with 0.5% polyethyleneimine. The wells of the polypropylene plate were rinsed and aspirated seven times with a 0.9% saline-0.5% Tween 20 solution. The Unifilter plate was dried, a scintillation cocktail was added to each well and the counts representing binding were quantitated in a TopCount scintillation counter.
(§3) For compounds tested, an IC50 binding value was obtained from percent inhibition studies in which various test concentrations were used. The binding value was calculated by linear regression.

In the next assay the target is T2, CB2 receptor (Homo sapiens, UniProt P34972).
T2 construct: expressed in transfected cells
T2 sequence (P34972 whole entry): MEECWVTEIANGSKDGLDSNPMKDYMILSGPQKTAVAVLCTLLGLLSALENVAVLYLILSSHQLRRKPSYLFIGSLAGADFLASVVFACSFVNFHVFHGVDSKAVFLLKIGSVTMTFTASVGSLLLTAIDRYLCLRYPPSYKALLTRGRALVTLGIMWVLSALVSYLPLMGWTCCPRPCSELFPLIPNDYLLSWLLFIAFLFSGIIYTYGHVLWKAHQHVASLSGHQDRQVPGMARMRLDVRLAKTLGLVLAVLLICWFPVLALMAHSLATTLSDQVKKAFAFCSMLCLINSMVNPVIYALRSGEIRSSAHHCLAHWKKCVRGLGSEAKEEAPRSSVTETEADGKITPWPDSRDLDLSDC
As to the kind of experiment: Binding assay for CB2 agonists or inverse agonists (SK-N-MC membranes, [3H]-CP-55,940). To be noted: for CB2 receptor binding percent inhibition: test concentration not stated. The protocol: as §1
as §2, with “The diluted membrane pellet was added with buffer, either a test compound or vehicle standard and the radioligand [H]^3+-CP-55,940 (0.2 mM) to the wells of a 96-well polypropylene plate. Non-specific binding was measured in wells containing WIN 55,212 (10 uM).” left out
as §3

T1 sequence (P21554 whole entry): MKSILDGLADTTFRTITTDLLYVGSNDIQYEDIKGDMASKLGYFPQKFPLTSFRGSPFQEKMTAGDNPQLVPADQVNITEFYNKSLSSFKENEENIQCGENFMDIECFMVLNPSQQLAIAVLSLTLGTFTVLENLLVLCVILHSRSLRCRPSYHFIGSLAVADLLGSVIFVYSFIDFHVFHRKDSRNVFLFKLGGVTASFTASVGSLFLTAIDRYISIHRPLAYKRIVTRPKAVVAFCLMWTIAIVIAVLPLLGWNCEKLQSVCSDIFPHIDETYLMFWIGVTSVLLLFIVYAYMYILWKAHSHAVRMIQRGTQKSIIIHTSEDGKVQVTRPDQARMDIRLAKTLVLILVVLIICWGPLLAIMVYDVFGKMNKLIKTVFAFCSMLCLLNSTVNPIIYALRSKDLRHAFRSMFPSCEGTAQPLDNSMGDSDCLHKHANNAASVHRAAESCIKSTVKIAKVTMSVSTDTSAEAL

As usually defined, the IC50 is the midpoint of a concentration-inhibition curve. Take `O=C(N[C@@H]1c2ccccc2C[C@@H]1O)c1nn(C2CCCCC2)c2c1CCCCC2Cc1ccc(F)cc1` (relative stereo) [Cpd 121, (8S*)-1-cyclohexyl-8-(4-fluoro-benzyl)-1,4,5,6,7,8-hexahydro-cycloheptapyrazole-3-carboxylic acid [(1R,2S)-2-hydroxy-indan-1-yl]-amide]: on CB1 receptor, the half-maximal inhibitory concentration (IC50) is 0.4 µM, the inhibition at 0.5 µM came to 70% and the inhibition at 1 µM was 80%. Moreover, on CB2 receptor, the “CB2 receptor binding percent inhibition” value was determined as 95%.
Regarding `O=C(N[C@@H]1c2ccccc2C[C@@H]1O)c1nn(C2CCCCC2)c2c1CCCCC2Cc1cccc(F)c1` (single isomer, unassigned) [Cpd 115, (8S*)-1-cyclohexyl-8-(3-fluoro-benzyl)-1,4,5,6,7,8-hexahydro-cycloheptapyrazole-3-carboxylic acid [(1R,2S)-2-hydroxy-indan-1-yl]-amide], on CB1 receptor, the 50% inhibitory concentration (IC50) is 0.5 µM and the inhibition at 0.5 µM was determined as 67%. The “CB1 receptor binding percent inhibition” value on CB1 receptor (test concentration 1 μM (footnote 1), 1 µM) is 79%. The “CB2 receptor binding percent inhibition” value on CB2 receptor was 99%.
As to `O=C(N[C@@H](CO)c1ccccc1)c1nn(C2CCCCC2)c2c1CCCCC2Cc1ccc(F)cc1` (stereo in doubt) [Cpd 67, (8S*)-1-cyclohexyl-8-(4-fluoro-benzyl)-1,4,5,6,7,8-hexahydro-cycloheptapyrazole-3-carboxylic acid [(1R)-2-hydroxy-1-phenyl-ethyl]-amide], at CB1 receptor, the inhibition at 1 µM was 44%. The “CB2 receptor binding percent inhibition” value at CB2 receptor turned out to be 55%.
As to `Cc1ccc(CC2CCCCc3c(C(=O)NC4C5(C)CCC(C5)C4(C)C)nn(-c4ccc(F)cc4)c32)cc1` (stereo not drawn) [Cpd 1, 1-(4-fluoro-phenyl)-8-(4-methyl-benzyl)-1,4,5,6,7,8-hexahydro-cycloheptapyrazole-3-carboxylic acid (1,3,3-trimethyl-bicyclo[2.2.1]hept-2-yl)-amide], the concentration for half-maximal inhibition (IC50) at CB1 receptor is 0.2 µM; on CB2 receptor (Cannabinoid CB2 Receptor Binding IC50, calculated by linear regression from percent inhibition at various test concentrations) it was 0.3 µM.
With `CC12CCC(C1)C(C)(C)[C@H]2NC(=O)c1nn(C2CCCCC2)c2c1CCCCC2Cc1ccc(Cl)cc1` (stereo partly drawn) [Cpd 2, 8-(4-chloro-benzyl)-1-cyclohexyl-1,4,5,6,7,8-hexahydro-cycloheptapyrazole-3-carboxylic acid [(2S)-1,3,3-trimethyl-bicyclo[2.2.1]hept-2-yl]-amide], at CB1 receptor, the inhibition at 1 µM was determined as 21%. For the same compound, the “CB2 receptor binding percent inhibition” value on CB2 receptor is 53%.
`CC12CCC(C1)C(C)(C)[C@H]2NC(=O)c1nn(C2CCCCC2)c2c1CCCCC2Cc1cccc(Cl)c1` (stereo partly drawn) [Cpd 4, 8-(3-chloro-benzyl)-1-cyclohexyl-1,4,5,6,7,8-hexahydro-cycloheptapyrazole-3-carboxylic acid [(2S)-1,3,3-trimethyl-bicyclo[2.2.1]hept-2-yl]-amide]: at CB1 receptor, the inhibition at 1 µM worked out at 51%. Besides, at CB2 receptor, the “CB2 receptor binding percent inhibition” value amounted to 36%.
Taken in the same sequence, the figures for `C[C@H](NC(=O)c1nn(C2CCCCC2)c2c1CCCCC2Cc1ccc(Cl)cc1)c1ccccc1` (stereo partly drawn) [Cpd 5, 8-(4-chloro-benzyl)-1-cyclohexyl-1,4,5,6,7,8-hexahydro-cycloheptapyrazole-3-carboxylic acid [(1S)-1-phenyl-ethyl]-amide] were 22% and 34%.
For the compound `C[C@@H](NC(=O)c1nn(C2CCCCC2)c2c1CCCCC2Cc1ccc(Cl)cc1)c1ccccc1` (stereo partly drawn) [Cpd 6, 8-(4-chloro-benzyl)-1-cyclohexyl-1,4,5,6,7,8-hexahydro-cycloheptapyrazole-3-carboxylic acid [(1R)-1-phenyl-ethyl]-amide], the inhibition at 1 µM on CB1 receptor is 26%. Moreover, on CB2 receptor, the “CB2 receptor binding percent inhibition” value stood at 4%.
For `COc1ccc(/C=C2\CCCCc3c(C(=O)N[C@@H]4CCC[C@H]4O)nn(-c4ccc(Cl)cc4Cl)c32)cc1` [Cpd 221, (8E)-1-(2,4-dichloro-phenyl)-8-(4-methoxy-benzylidene)-1,4,5,6,7,8-hexahydro-cycloheptapyrazole-3-carboxylic acid [(1R,2R)-2-hydroxy-cyclopentyl)-amide], the inhibition at 0.2 µM at CB2 receptor (test concentration 0.2 μM (footnote 2), read-out: CB2 receptor binding percent inhibition) turned out to be 24%.
